Measurements taken from patent publication US8492334B2, “Sustained intraocular delivery of drugs from biodegradable polymeric microparticles” (Yale University, priority 2007, dated 2013).
Structures can show the parent of a compound that is named as a salt. Where two headings read alike, the source gives them in different places.

B1: NT-3: neurotrophic factor in the NGF family of neurotrophins (protein, UniProt P20783 139-257, looked up)
Neurotrophin-3: YAEHKSHRGEYSVCDSESLWVTDKSSAIDIRGHQVTVLGEIKTGNSPVKQYFYETRCKEARPVKNGCRGIDDKHWNSQCKTSQTYVRALTSENNKLVGWRWIRIDTSCVCALSRKIGRT
B2: BDNF: brain-derived neurotrophic factor, a protein neurotrophic factor (protein, UniProt P23560 19-247, looked up)
Neurotrophic factor BDNF …: APMKEANIRGQGGLAYPGVRTHGTLESVNGPKAGSRGLTSLADTFEHVIEELLDEDQKVRPNEENNKDADLYTSRVMLSSQVPLEPPLLFLLEEYKNYLDAANMSMRVRRHSDPARRGELSVCDSISEWVTAADKKTAVDMSGGTVTVLEKVPVSKGQLKQYFYETKCNPMGYTKEGCRGIDKRHWNSQCRTTQSYVRALTMDSKKRIGWRFIRIDTSCVCTLTIKRGR
B3: NT-4: neurotrophic factor in the NGF family of neurotrophins (protein, UniProt P34130 81-210, looked up)
Neurotrophin-4: GVSETAPASRRGELAVCDAVSGWVTDRRTAVDLRGREVEVLGEVPAAGGSPLRQYFFETRCKADNAEEGGPGAGGGGCRGVDRRHWVSECKAKQSYVRALTADAQGRVGWRWIRIDTACVCTLLSRTGRA

Columns and labels:
[1] = eye drops, cited from earlier work
[2] = administered topically as a solution; cited from earlier work
[3] = Release of timolol maleate in vitro from microspheres; format: physicochemical; details: 20% w/w timolol maleate to PLGA; AOT 147 mM in first emulsion step, or Span 20 in its place
Protocol: In 1.5 ml eppendorf tubes, 10 mg of timolol containing or blank microparticles were reconstituted with 1 ml of phosphate buffered saline (PBS). Samples were prepared in triplicate. The samples were incubated at 37° C. on a labquake rotating shaker (Barnstead/Thermolyne; Dubuque, Iowa, USA). At specific time points (1, 3, 5, and 8 hours; 1, 2, 3, 5, and 7 days; and once every 7 days thereafter until no pellets remained), the samples were centrifuged and the supernatant collected. 1 ml of PBS was added to the replace the withdrawn supernatant and the microparticles were resuspended and returned to the shaker. Supernatants for each of the sets of microspheres was frozen and stored at −80° C. for subsequent analysis using UV spectroscopy at 293 nm.
The drug loading was 20% weight of timolol maleate to weight of polymer. The particles were stored in deionized water at 37° C. Following centrifugation at predetermined time points, the supernatant was extracted and timolol maleate content measured. FIG. 3 depicts the same values expressed as a percentage of the loading values in FIG. 1.

[4] = system: adult rat retinal ganglion cells; details: cited from earlier work; for effect on survival of RGCs after axotomy: intraocular administration; for delay of onset of axotomy-induced RGC death: intraocular administration at the time of axotomy

Molecule | effect on survival of RGCs after axotomy [4] | delay of onset of axotomy-induced RGC death [4] | other results
CC(C)(C)NC[C@H](O)COc1nsnc1N1CCOCC1 [Timolol maleate] | – | – | systemic absorption of the administered drug [1]: approximately 80%; topically administered drug reaching the aqueous humor [1]: less than 1%; systemic absorption of the administered drug ([1]; listed as timolol maleate): ~80%; average IOP reduction [2]: 20-35%
Span 20 | – | – | effect of added surfactant on loading or release of timolol maleate [3]: no significant effect
B1 | did not modify the survival of RGCs | – | –
B2 | neuroprotective effect | approximately 3 days | –
B3 | neuroprotective effect | approximately 3 days | –
